{"source": "patent US7402575B2", "about": "“Methods of treating inflammation” (priority 2003, dated 2008)", "key": {"E. coli sepsis in dogs [1]": {"system": "E. coli sepsis in dogs", "test": "Early Treatment Study: TAC given 1.5 h after sepsis induced, hemodynamics", "assay_type": "in vivo, dog", "conditions": "for Arterial pH / HR / Hct / Lactate / Pwp / SVR: mean±SE, n=5", "procedure": "(§1) In all of the studies outlined, the animals were randomized into treatment and nontreatment placebo groups (see below). The E. coli model used in these studies was identical to that previously described (6). Sepsis was induced by the intravenous infusion of 10^10 colony forming units of live E. coli (designation 011:B4). The bacteria were suspended in normal saline solution and were given over 0.5 hour. A constant infusion of approximately 5×10^9 colony forming units/hour of E. coli was then maintained for the remainder of the experiment.\n(§2) The animals (16-24 kg) were initially anesthetized with thiopental sodium (20 mg/kg, intravenously) and constantly infused with sufentanil citrate (1 ug/min) and midazolam (5 ug/kg/min) (33). Drug rates were adjusted as required to abolish the palpebral reflex. The animals were placed in the supine position; the trachea was intubated with an endotracheal tube; and the lungs were mechanically ventilated at a tidal volume of 20 ml/kg. The ventilator rate was initially set to maintain blood pH at approximately 7.35 and was increased as necessary to reverse the metabolic acidosis that developed over the course of the study. Approximately 100% oxygen was inspired, so that hypoxemia would not affect the results of the study.\n(§3) Under sterile conditions, the right jugular vein was percutaneously cannulated with an introducer (Arrow International, Reading, Pa.). A thermister tipped catheter was advanced from the jugular vein into the pulmonary artery to measure mean pulmonary arterial pressure (Ppa), mean pulmonary capillary wedge pressure (Pwp), mean right atrial pressure (Pra), thermodilution cardiac output (CO, Columbus Instruments, OH), and to obtain mixed venous oxygen blood samples. Another introducer was placed into the left jugular vein for administration of intravenous saline solution and the treatment or placebo drug (see below). A polyethylene catheter was also percutaneously placed into the femoral artery to measure mean blood pressure (MAP), and to obtain samples of blood for blood gas analysis, blood hematocrit (Hct), lactate concentrations, and blood cultures in some cases. Lactate was measured by an automated lactate dehydrogenase based assay (34) and was performed only in ETS and LTS because of equipment difficulties in the Pretreatment Study.\n(§4) All catheters were connected to transducers (Cobe Laboratories), were referenced relative to the left atrium and were connected to a chart recorder (Astro-Med, W Warwick, R.I.). Heart rate (HR) was measured from the recorder tracing. Stroke-volume (SV) was calculated as CO/HR. Systemic vascular resistance (SVR) was calculated from [(MAP-Pra)/CO]×80. At each measurement interval (see below), a full set of measurements included MAP, CO, Ppa, Pra, Pwp, Hct, HR, SV, and arterial and mixed venous blood samples.\n(§5) In the analysis, stroke work (SW) was the primary index of cardiac performance and the primary hemodynamic endpoint chosen in the in vivo studies (35,18) (see Discussion). At constant preload, SW reflects both the decreases in afterload and the changes in contractile function that accompany sepsis. SW was determined at approximately the same Pwp at each measurement interval. The baseline Pwp usually averaged ≈8-10 mmHg, and normal saline solution was given as necessary to maintain Pwp constant over the experimental period. SW was calculated from SV (MAP-Pwp).\nEarly Treatment Study. The purpose of this study was to assess the effect of TAC when treatment was administered during sepsis, but before myocardial depression developed. Treatment was administered at 1.5 hours after bacteremia was begun (6). Based on the lack of response of some animals in the LTS, the initial dose of TAC was increased to 400 mg, and followed by 50 mg/h mixed in 50 cc D5W over the remainder of the study. The placebo group received an identical amount of D5W over the course of the study."}, "E. coli sepsis in dogs [2]": {"system": "E. coli sepsis in dogs", "test": "Late Treatment Study: TAC given after 3.5 h of sepsis, hemodynamics", "assay_type": "in vivo, dog", "conditions": "for Arterial pH / HR / Hct / Lactate / Pwp / SVR: mean±SE, n=5", "procedure": "as §1, §2, §3, §4, §5\nLate Treatment Study. In LTS, the objective was to see if TAC would reverse myocardial depression once it had already been produced. TAC was administered after 3.5 hours after the initiation of bacteria and was given over a 0.5 hour in 200 ml D5W. Because it was also noted in the in vitro trabecular preparation that once lysozyme was already placed into the bath, a higher concentration of TAC was required to inhibit the effect of lysozyme, the initial dose was increased to 250 mg in LTC. […]"}, "[3]": {"conditions": "Late Treatment Study, 2 h posttreatment (6 h post-sepsis)"}, "[4]": {"conditions": "Late Treatment Study, 3.5 h post sepsis, before TAC"}, "[5]": {"conditions": "Late Treatment Study, immediately after TAC infusion"}}, "note": "“Also recorded” adds a separate entry of the source."}
{"smiles": "CC(=O)N[C@H]1[C@H](O[C@H]2[C@H](O)[C@@H](NC(C)=O)C(O)O[C@@H]2CO)O[C@H](CO)[C@@H](O[C@@H]2O[C@H](CO)[C@@H](O)[C@H](O)[C@H]2NC(C)=O)[C@@H]1O", "note": "(stereo partly shown) [TAC, N,N′,N″ triacetylglucosamine]", "values": [{"measurement": "CO over the course of sepsis", "setting": "E. coli sepsis in dogs [1]; 6 h", "result": "increased over the course of sepsis as compared with the nontreated group; also recorded: significant increases"}, {"measurement": "SV over the course of sepsis", "setting": "E. coli sepsis in dogs [1]; 6 h", "result": "showed a similar finding"}, {"measurement": "Arterial pH", "setting": "E. coli sepsis in dogs [1]; 6 h after sepsis initiated", "result": "7.24 ± .03"}, {"measurement": "HR", "setting": "E. coli sepsis in dogs [1]; 6 h after sepsis initiated", "result": "94 ± 8", "unit": "beats/min"}, {"measurement": "Hct", "setting": "E. coli sepsis in dogs [1]; 6 h after sepsis initiated", "result": "30 ± 4", "unit": "%"}, {"measurement": "Lactate", "setting": "E. coli sepsis in dogs [1]; 6 h after sepsis initiated", "result": "1 ± .1 mM"}, {"measurement": "Pwp", "setting": "E. coli sepsis in dogs [1]; 6 h after sepsis initiated", "result": "10.9 ± 1", "unit": "mmHg"}, {"measurement": "SVR", "setting": "E. coli sepsis in dogs [1]; 6 h after sepsis initiated", "result": "1792 ± 233", "unit": "dynes s cm^−5"}, {"measurement": "Arterial pH", "setting": "E. coli sepsis in dogs [1]; baseline", "result": "7.23 ± .03"}, {"measurement": "HR", "setting": "E. coli sepsis in dogs [1]; baseline", "result": "68 ± 9", "unit": "beats/min"}, {"measurement": "Hct", "setting": "E. coli sepsis in dogs [1]; baseline", "result": "31 ± 2", "unit": "%"}, {"measurement": "Lactate", "setting": "E. coli sepsis in dogs [1]; baseline", "result": "1 ± .1 mM"}, {"measurement": "Pwp", "setting": "E. coli sepsis in dogs [1]; baseline", "result": "10 ± .5 mmHg"}, {"measurement": "SVR", "setting": "E. coli sepsis in dogs [1]; baseline", "result": "2160 ± 581", "unit": "dynes s cm^−5"}, {"measurement": "MAP over the 6 hrs of sepsis", "setting": "E. coli sepsis in dogs [1]; treatment group", "result": "increased in 4 of the 5 dogs"}, {"measurement": "SW once myocardial depression was observed", "setting": "E. coli sepsis in dogs [2]; Late Treatment Study", "result": "little effect of treatment on SW"}, {"measurement": "Hemodynamics", "setting": "E. coli sepsis in dogs [2]; Late Treatment Study (FIG. 11)", "result": "no effect"}, {"measurement": "Arterial pH", "setting": "E. coli sepsis in dogs [2]; [3]", "result": "7.20 ± .04"}, {"measurement": "HR", "setting": "E. coli sepsis in dogs [2]; [3]", "result": "90 ± 9", "unit": "beats/min"}, {"measurement": "Hct", "setting": "E. coli sepsis in dogs [2]; [3]", "result": "29 ± 6", "unit": "%"}, {"measurement": "Lactate", "setting": "E. coli sepsis in dogs [2]; [3]", "result": "1.3 ± .4 mM"}, {"measurement": "Pwp", "setting": "E. coli sepsis in dogs [2]; [3]", "result": "10 ± 1.6", "unit": "mmHg"}, {"measurement": "SVR", "setting": "E. coli sepsis in dogs [2]; [3]", "result": "1280 ± 182", "unit": "dynes s cm^−5"}, {"measurement": "Arterial pH", "setting": "E. coli sepsis in dogs [2]; [4]", "result": "7.24 ± .05"}, {"measurement": "HR", "setting": "E. coli sepsis in dogs [2]; [4]", "result": "113 ± 9", "unit": "beats/min"}, {"measurement": "Hct", "setting": "E. coli sepsis in dogs [2]; [4]", "result": "26 ± 5", "unit": "%"}, {"measurement": "Pwp", "setting": "E. coli sepsis in dogs [2]; [4]", "result": "9.8 ± 1", "unit": "mmHg"}, {"measurement": "SVR", "setting": "E. coli sepsis in dogs [2]; [4]", "result": "1200 ± 262", "unit": "dynes s cm^−5"}, {"measurement": "Arterial pH", "setting": "E. coli sepsis in dogs [2]; Late Treatment Study, baseline", "result": "7.34 ± .015"}, {"measurement": "HR", "setting": "E. coli sepsis in dogs [2]; Late Treatment Study, baseline", "result": "60 ± 4", "unit": "beats/min"}, {"measurement": "Hct", "setting": "E. coli sepsis in dogs [2]; Late Treatment Study, baseline", "result": "34 ± 2", "unit": "%"}, {"measurement": "Lactate", "setting": "E. coli sepsis in dogs [2]; Late Treatment Study, baseline", "result": ".9 ± .2 mM"}, {"measurement": "Pwp", "setting": "E. coli sepsis in dogs [2]; Late Treatment Study, baseline", "result": "9.4 ± 1", "unit": "mmHg"}, {"measurement": "SVR", "setting": "E. coli sepsis in dogs [2]; Late Treatment Study, baseline", "result": "2437 ± 343", "unit": "dynes s cm^−5"}, {"measurement": "Arterial pH", "setting": "E. coli sepsis in dogs [2]; [5]", "result": "7.20 ± .04"}, {"measurement": "HR", "setting": "E. coli sepsis in dogs [2]; [5]", "result": "96 ± 8", "unit": "beats/min"}, {"measurement": "Hct", "setting": "E. coli sepsis in dogs [2]; [5]", "result": "27 ± 5", "unit": "%"}, {"measurement": "Lactate", "setting": "E. coli sepsis in dogs [2]; [5]", "result": "1.3 ± .2 mM"}, {"measurement": "Pwp", "setting": "E. coli sepsis in dogs [2]; [5]", "result": "10.5 ± 1.4", "unit": "mmHg"}, {"measurement": "SVR", "setting": "E. coli sepsis in dogs [2]; [5]", "result": "1268 ± 196", "unit": "dynes s cm^−5"}]}
